| SMILES | melting point |
| --- | --- |
| O=C(O)C1=Cc2cc(Cl)cc(COCc3ccccc3)c2OC1C(F)(F)F (stereo not drawn) [Example 113, 6-Chloro-8-(benzyloxymethyl)-2-(trifluoromethyl)-2H-1-benzopyran-3-carboxylic acid] | 133.8 to 135.4 °C |
| O=C(O)C1=Cc2cc(Cl)cc(-c3ccco3)c2OC1C(F)(F)F (stereo not drawn) [Example 117, 6-Chloro-8-(2-furanyl)-2-(trifluoromethyl)-2H-1-benzopyran-3-carboxylic acid] | 171.5 to 173.3 °C |
| O=C(O)C1=Cc2cc(Cl)cc(C#CCCCCl)c2OC1C(F)(F)F (stereo not drawn) [Example 118, 6-Chloro-8-(5-chloro-1-pentynyl)-2-(trifluoromethyl)-2H-1-benzopyran-3-carboxylic acid] | 154.4 to 156.4 °C |
| CCCC#Cc1cc(Cl)cc2c1OC(C(F)(F)F)C(C(=O)O)=C2 (stereo not drawn) [Example 119, 6-Chloro-8-(1-pentynyl)-2-(trifluoromethyl)-2H-1-benzopyran-3-carboxylic acid] | 168.1 to 171.2 °C |
| CC(C)(C)C#Cc1cc(Cl)cc2c1OC(C(F)(F)F)C(C(=O)O)=C2 (stereo not drawn) [Example 121, 6-Chloro-8-(3,3-dimethyl-1-butynyl)-2-(trifluoromethyl)-2H-1-benzopyran-3-carboxylic acid] | 218.3 to 222.4 °C |
| O=C(O)C1=Cc2cc(Cl)cc(C#Cc3ccc(Cl)cc3)c2OC1C(F)(F)F (stereo not drawn) [Example 122, 6-Chloro-8-[(4-chlorophenyl)ethynyl]-2-(trifluoromethyl)-2H-1-benzopyran-3-carboxylic acid] | 210.4 to 211.4 °C |
| COc1ccc(C#Cc2cc(Cl)cc3c2OC(C(F)(F)F)C(C(=O)O)=C3)cc1 (stereo not drawn) [Example 123, 6-Chloro-8-[(4-methoxyphenyl)ethynyl]-2-(trifluoromethyl)-2H-1-benzopyran-3-carboxylic acid] | 217.7 to 218.7 °C |
| O=C(O)C1=Cc2cc(C#Cc3ccccc3)ccc2OC1C(F)(F)F (stereo not drawn) [Example 124, 6-(Phenylethynyl)-2-(trifluoromethyl)-2H-1-benzopyran-3-carboxylic acid] | 240.1 to 241.3 °C |
| COc1cccc(-c2cc(Cl)cc3c2OC(C(F)(F)F)C(C(=O)O)=C3)c1 (stereo not drawn) [Example 126, 6-Chloro-8-(3-methoxyphenyl)-2-(trifluoromethyl)-2H-1-benzopyran-3-carboxylic acid] | 173.1 to 177.4 °C |
| CSc1ccc(-c2cc(Cl)cc3c2OC(C(F)(F)F)C(C(=O)O)=C3)cc1 (stereo not drawn) [Example 127, 6-Chloro-8-[(4-methylthio)phenyl]-2-(trifluoramethyl)-2H-1-benzopyran-3-carboxylic acid] | 211.4 to 212.5 °C |
| CS(=O)(=O)c1ccc(-c2cc(Cl)cc3c2OC(C(F)(F)F)C(C(=O)O)=C3)cc1 (stereo not drawn) [Example 128, 6-Chloro-8-[(4-methylsulfonyl)phenyl]-2-(trifluoromethyl)-2H-1-benzopyran-3-carboxylic acid] | 286.5 to 287.8 °C |
| O=C(O)C1=Cc2cc(Br)cc(F)c2OC1C(F)(F)F (stereo not drawn) [Example 130, 6-Bromo-8-fluoro-2-(trifluoromethyl)-2H-1-benzopyran-3-carboxylic acid] | 206 to 208 °C |
| O=C(O)C1=Cc2cc(-c3ccc(F)cc3)ccc2OC1C(F)(F)F (stereo not drawn) [Example 131, 6-(4-Fluorophenyl)-2-(trifluoromethyl)-2H-1-benzopyran-3-carboxylic acid] | 207 to 210 °C |
| O=C(O)C1=Cc2cc(-c3ccccc3)ccc2OC1C(F)(F)F (stereo not drawn) [Example 132, 6-Phenyl-2-(trifluoromethyl)-2H-1-benzopyran-3-carboxylic acid] | 197 to 198 °C |
| O=C(O)C1=Cc2cc(F)cc(Cl)c2OC1C(F)(F)F (stereo not drawn) [Example 133, 8-Chloro-6-fluoro-2-(trifluoromethyl)-2H-1-benzopyran-3-carboxylic acid] | 240 to 241 °C |
| O=C(O)C1=Cc2cc(I)cc(I)c2OC1C(F)(F)F (stereo not drawn) [Example 134, 6,8-Diiodo-2-(trifluoromethyl)-2H-1-benzopyran-3-carboxylic acid] | 243 to 244 °C |
| O=C(O)C1=Cc2cc(-c3ccc(Cl)s3)ccc2OC1C(F)(F)F (stereo not drawn) [Example 135, 6-(5-Chloro-2-thienyl)-2-(trifluoramethyl)-2H-1-benzopyran-3-carboxylic acid] | 205 to 206 °C |
| O=C(O)C1=Cc2cc(-c3cccs3)ccc2OC1C(F)(F)F (stereo not drawn) [Example 136, 6-(2-thienyl)-2-(trifluoromethyl)-2H-1-benzopyran-3-carboxylic acid] | 209 to 212 °C |
| O=C(O)C1=Cc2cc(-c3ccc(Cl)cc3)ccc2OC1C(F)(F)F (stereo not drawn) [Example 137, 6-(4-Chlorophenyl)-2-(trifluoromethyl)-2H-1-benzopyran-3-carboxylic acid] | 212 to 213 °C |
| COc1ccc(-c2cc(Cl)cc3c2OC(C(F)(F)F)C(C(=O)O)=C3)cc1 (stereo not drawn) [Example 141, 6-Chloro-8-(4-methoxyphenyl)-2-trifluoromethyl-2H-1-benzopyran-3-carboxylic acid] | 194 to 196 °C |
| C=CC1=C(C(=O)O)C(C(F)(F)F)Oc2ccc(Cl)cc21 (stereo not drawn) [Example 142, 6-Chloro-2-(trifluoromethyl)-4-ethenyl-2H-1-benzopyran-3-carboxylic acid] | 143 to 145 °C |
| O=C(O)C1=C(c2ccccc2)c2cc(Cl)ccc2OC1C(F)(F)F (stereo not drawn) [Example 143, 6-Chloro-2-(trifluoromethyl)-4-phenyl-2H-1-benzopyran-3-carboxylic acid] | 225.5 to 226.6 °C |
| O=C(O)C1=C(c2cccs2)c2cc(Cl)ccc2OC1C(F)(F)F (stereo not drawn) [Example 144, 6-Chloro-4-(2-thienyl)-2-(trifluoromethyl)-2H-1-benzopyran-3-carboxylic acid] | 200.8 to 206.7 °C |
| Cc1ccc2c(c1)C=C(C(=O)O)C(C(F)(F)F)S2 (stereo not drawn) [Example 145, 6-Methyl-2-(trifluoromethyl)-2H-1-benzothiopyran-3-carboxylic acid] | 180.8 to 184.2 °C |

Now from value to compound:

| melting point | SMILES |
| --- | --- |
| 220 to 225 °C (dec.) | Cc1cc(C)c2c(c1)C=C(C(=O)O)C(C(F)(F)F)S2 (stereo not drawn) [Example 146, 6,8-Dimethyl-2-(trifluoromethyl)-2H-1-benzothiopyran-3-carboxylic acid] |
| 183.8 to 184.6 °C | CC(C)(C)c1ccc2c(c1)C=C(C(=O)O)C(C(F)(F)F)S2 (stereo not drawn) [Example 147, 6-(1,1-Dimethylethyl)-2-(trifluoromethyl)-2H-1-benzothiopyran-3-carboxylic acid] |
| 186.6 to 191.9 °C | Cc1ccc2c(c1)SC(C(F)(F)F)C(C(=O)O)=C2 (stereo not drawn) [Example 148, 7-Methyl-2-(trifluoromethyl)-2H-1-benzothiopyran-3-carboxylic acid] |
| 235 to 237 °C | Cc1cc2c(cc1C)SC(C(F)(F)F)C(C(=O)O)=C2 (stereo not drawn) [Example 149, 6,7-Dimethyl-2-(trifluoromethyl)-2H-1-benzothiopyran-3-carboxylic acid] |
| 224 to 225 °C | Cc1cccc2c1SC(C(F)(F)F)C(C(=O)O)=C2 (stereo not drawn) [Example 150, 8-Methyl-2-(trifluoromethyl)-2H-1-benzothiopyran-3-carboxylic acid] |
| 187 to 190 °C | O=C(O)C1=Cc2ccccc2SC1C(F)(F)F (stereo not drawn) [Example 151, 2-(Trifluoromethyl)-2H-1-benzothiopyran-3-carboxylic acid] |
| 225.7 to 227.3 °C | O=C(O)C1=Cc2ccc(Cl)cc2SC1C(F)(F)F (stereo not drawn) [Example 153, 7-Chloro-2-(trifluoromethyl)-2H-1-benzothiopyran-3-carboxylic acid] |
| 186.6 to 188.9 °C | O=C(O)C1=Cc2cc(F)c(F)cc2NC1C(F)(F)F (stereo not drawn) [Example 159, 6,7-Difluoro-1,2-dihydro-2-(trifluoromethyl)-3-quinolinecarboxylic acid] |
| 127.7 to 128.9 °C | O=C(O)C1=Cc2cc(OC(F)(F)F)ccc2NC1C(F)(F)F (stereo not drawn) [Example 162, 1,2-Dihydro-6-(trifluoromethoxy)-2-(trifluoromethyl)-3-quinolinecarboxylic acid] |
| 150 to 156 °C | O=C(O)C1=Cc2cc(C(F)(F)F)ccc2NC1C(F)(F)F (stereo not drawn) [Example 163, 6-(Trifluoromethyl)-1,2-dihydro-2-(trifluoromethyl)-3-quinolinecarboxylic acid] |
| 238 to 240 °C | N#Cc1ccc2c(c1)C=C(C(=O)O)C(C(F)(F)F)N2 (stereo not drawn) [Example 164, 6-Cyano-1,2-dihydro-2-(trifluoromethyl)-3-quinolinecarboxylic acid] |
| 229 to 231 °C | O=C(O)C1=Cc2cc(Cl)ccc2N(Cc2ccc(C(F)(F)F)cc2)C1C(F)(F)F (stereo not drawn) [Example 166, 6-Chloro-1,2-dihydro-2-(trifluoromethyl)-1-[[4-(trifluoromethyl)phenyl]methyl]-3-quinolinecarboxylic acid] |
| 250 to 253 °C | O=C(O)C1=Cc2cc(Cl)ccc2N(Cc2ccc(Cl)cc2)C1C(F)(F)F (stereo not drawn) [Example 167, 6-Chloro-1-[(4-Chlorophenyl)methyl]-1,2-dihydro-2-(trifluoromethyl)-3-quinolinecarboxylic acid] |
| 196 to 197 °C | COc1ccc(CN2c3ccc(Cl)cc3C=C(C(=O)O)C2C(F)(F)F)cc1 (stereo not drawn) [Example 168, 6-Chloro-1,2-dihydro-2-(trifluoromethyl)-1-[[4-(methoxy)phenyl]methyl]-3-quinolinecarboxylic acid] |
| 258 to 260 °C | N#Cc1ccc(CN2c3ccc(Cl)cc3C=C(C(=O)O)C2C(F)(F)F)cc1 (stereo not drawn) [Example 169, 6-Chloro-1-[(4-cyanophenyl)methyl]-1,2-dihydro-2-(trifluoromethyl)-3-quinolinecarboxylic acid] |
| 225 to 228 °C | O=C(O)C1=Cc2cc(Cl)ccc2N(Cc2ccc([N+](=O)[O-])cc2)C1C(F)(F)F (stereo not drawn) [Example 170, 6-Chloro-1,2-dihydro-1-[(4-nitrophenyl)methyl]-2-(trifluoromethyl)-3-quinolinecarboxylic acid] |
| 201 to 202 °C | CCN1c2ccc(Cl)cc2C=C(C(=O)O)C1C(F)(F)F (stereo not drawn) [Example 171, 6-Chloro-1,2-dihydro-1-ethyl-2-(trifluoromethyl)-3-quinolinecarboxylic acid] |
| 114 to 120 °C | O=C(O)C1=Cc2cc(C(O)C(F)(F)F)ccc2OC1C(F)(F)F (stereo not drawn) [Example 173, 6-(2,2,2-Trifluoro-1-hydroxyethyl)-2-(trifluoromethyl)-2H-1-benzopyran-3-carboxylic acid] |
